# Assay results as given in patent US20130302442A1, “METHODS OF USING (4S,4AS,5AR,12AS)-4-DIMETHYLAMINO-3,10,12,12A-TETRAHYDROXY-7-[(METHOXY(METHYL)AMINO)-METHYL]-1,11-DIOXO-1,4,4A,5,5A,6,11,12A-OCTAHYDRO-NAPHTHACENE-2-CARBOXYLIC ACID AMIDE” (priority 2012, published 2013).
# Like-named read-outs stand apart in the source and are kept apart here.
# Experiments:
# S. haemolyticus = assay: In vitro MIC testing, antibacterial spectrum of activity; assay type: cell-based; conditions: S. haemolyticus (33 isolates)
# [1] = tested on: methicillin-sensitive S. aureus (MSSA); assay: In vitro MIC against isolates of MSSA; assay type: cell-based, Staphylococcus aureus
# Salmonella Spp. = assay: In vitro MIC testing, antibacterial spectrum of activity; assay type: cell-based; conditions: Salmonella
# E. faecalis = assay: as above; assay type: cell-based
# Helicobacter pylori = assay: In vitro MIC against multiple isolates of H. pylori; assay type: cell-based; conditions: for MIC: read-out: MIC
# S. aureus = assay: In vitro MIC testing, antibacterial spectrum of activity; assay type: cell-based, Staphylococcus aureus; conditions: for MIC50 / MIC90 / MIC: Staphylococcus aureus; for MIC50: read-out: MIC50; for MIC90: read-out: MIC90
# [2] = tested on: Streptococcus constellatus; assay: In vitro MIC testing against anaerobic bacteria; assay type: cell-based
# [3] = tested on: hospital-associated methicillin-resistant S. aureus (MRSA-HA); assay: In vitro MIC against isolates of MRSA-HA; assay type: cell-based, Staphylococcus aureus; conditions: MRSA-HA (33 isolates)
# Staphylococcus aureus = assay: Inhibition of macromolecular synthesis in Staphylococcus aureus (whole-cell assay); assay type: cell-based; conditions: S. aureus, at 8-fold the MIC
# Chlamydia trachomatis [4] = assay: Susceptibility testing (MIC, MBC) of 10 isolates of C. trachomatis in HEp-2 cells; assay type: cell-based
# [5] = tested on: Peptostreptococcus micros; assay: In vitro MIC testing against anaerobic bacteria; assay type: cell-based; conditions: Parvimonas micra
# E. cloacae = assay: In vitro MIC testing, antibacterial spectrum of activity; assay type: cell-based; conditions: Enterobacter cloacae; E. cloacae (30 isolates)
# Chlamydia pneumoniae = assay: Susceptibility testing (MIC, MBC) of 10 isolates of C. pneumoniae in HEp-2 cells; assay type: cell-based
# [6] = tested on: bacterial protein synthesis (synthesis of reporter protein); assay: In vitro cell-free bacterial transcription and translation assay; assay type: biochemical; conditions: cell-free bacterial transcription and translation assay (Promega); read-out: IC50, inhibition of the synthesis of reporter protein
# P. acnes = assay: In vitro MIC testing, antibacterial spectrum of activity; assay type: cell-based, Propionibacterium acnes; conditions: for MIC50: read-out: MIC50; for MIC90: read-out: MIC90
# Bacteroides fragilis = assay: In vitro MIC testing against anaerobic bacteria; assay type: cell-based
# [7] = tested on: Lactobacillus acidophilus; assay: In vitro MIC testing against anaerobic bacteria; assay type: cell-based; conditions: Lactobacillus acidophilus 0681
# [8] = tested on: community-acquired methicillin-resistant S. aureus (MRSA-CA); assay: In vitro MIC against isolates of MRSA-CA; assay type: cell-based, Staphylococcus aureus
# Lactobacillus casei = assay: In vitro MIC testing against anaerobic bacteria; assay type: cell-based; conditions: Lacticaseibacillus casei, ATCC393; Lactobacillus casei 1722, ATCC 393
# Chlamydia trachomatis [9] = assay: In vitro susceptibility testing of Chlamydia trachomatis in HEp-2 cells (first study); assay type: cell-based; conditions: C. trachomatis strains
# [10] = MRSA, S. aureus [MRSA] (31 isolates)
# [11] = MSSA, S. aureus [MSSA] (32 isolates)
# [12] = Cutibacterium acnes, P. acnes [clinical isolates] (55 isolates)
# [13] = Cutibacterium acnes, P. acnes [tetS] (13 isolates)
# [14] = Staphylococcus aureus, MRSA-CA (33 isolates)
structure (smiles),measurement,setting,value
"CON(C)Cc1ccc(O)c2c1C[C@H]1C[C@H]3[C@H](N(C)C)C(O)=C(C(N)=O)C(=O)[C@@]3(O)C(O)=C1C2=O [The Active, (4S,4aS,5aR,12aS)-4-dimethylamino-3,10,12,12a-tetrahydroxy-7-[(methoxy(methyl)amino)-methyl]-1,11-dioxo-1,4,4a,5,5a,6,11,12a-octahydro-naphthacene-2-carboxylic acid amide]",MIC Range,S. haemolyticus,0.12 to 2 µg/mL
same,MIC50,"S. haemolyticus; Staphylococcus haemolyticus, read-out: MIC50",0.12 µg/mL
same,MIC90,"S. haemolyticus; Staphylococcus haemolyticus, read-out: MIC90",2 µg/mL
same,MIC90,[1]; MSSA (34 isolates),1.0 µg/mL
same,MIC Range,[1]; MSSA (34 isolates),0.25 to 16 µg/mL
same,MIC50,"[1]; Staphylococcus aureus, MSSA (34 isolates)",0.25 µg/mL
same,MIC90,"[1]; Staphylococcus aureus, MSSA (34 isolates), read-out: MIC90",1 µg/mL
same,MIC,"[1]; Staphylococcus aureus, single strain of doxycycline-resistant MSSA",16 µg/mL
same,MIC90,Salmonella Spp.,> 64 µg/mL
same,MIC Range,E. faecalis; E. faecalis [VSE] (31 isolates),0.25 to 32 µg/mL
same,MIC Range,E. faecalis; E. faecalis [tetR] (6 isolates),8 to 32 µg/mL
same,MIC,"E. faecalis; Enterococcus faecalis, E. faecalis strain PBS # 274, tetL",32 µg/mL
same,MIC,"E. faecalis; Enterococcus faecalis, E. faecalis strain PBS # 276, tetM",16 µg/mL
same,MIC,"E. faecalis; Enterococcus faecalis, E. faecalis strain PBS # 949, tetS",8 µg/mL
same,MIC50,"E. faecalis; Enterococcus faecalis, E. faecalis [VSE] (31 isolates), read-out: MIC50",32 µg/mL
same,MIC90,"E. faecalis; Enterococcus faecalis, E. faecalis [VSE] (31 isolates), read-out: MIC90",32 µg/mL
same,MIC Range,Helicobacter pylori; H. pylori clinical isolate summary,1 to 8 µg/mL
same,concentration inhibiting 12 out of 13 strains,"Helicobacter pylori; H. pylori, 12 out of 13 strains",1 to 2 µg/mL
same,concentration inhibiting all test strains,"Helicobacter pylori; H. pylori, all 13 test strains",≤ 8 µg/mL
same,MIC,"Helicobacter pylori; Helicobacter pylori, ATCC43504, H. pylori reference strain, culture No. 3718, ATCC 43504",2 µg/mL
same,MIC,"Helicobacter pylori; Helicobacter pylori, ATCC700824, H. pylori reference strain, culture No. 3719, ATCC 700824",2 µg/mL
same,MIC,"Helicobacter pylori; Helicobacter pylori, ATCCBAA945, H. pylori reference strain, culture No. 3720, ATCC BAA-945",1 µg/mL
same,MIC,"Helicobacter pylori; Helicobacter pylori, H. pylori clinical isolate, culture No. 4368",2 µg/mL
same,MIC,"Helicobacter pylori; Helicobacter pylori, H. pylori clinical isolate, culture No. 4369",8 µg/mL
same,MIC,"Helicobacter pylori; Helicobacter pylori, H. pylori clinical isolate, culture No. 4370",2 µg/mL
same,MIC,"Helicobacter pylori; Helicobacter pylori, H. pylori clinical isolate, culture No. 4371",2 µg/mL
same,MIC,"Helicobacter pylori; Helicobacter pylori, H. pylori clinical isolate, culture No. 4372",1 µg/mL
same,MIC,"Helicobacter pylori; Helicobacter pylori, H. pylori clinical isolate, culture No. 4374",2 µg/mL
same,MIC,"Helicobacter pylori; Helicobacter pylori, H. pylori clinical isolate, culture No. 4375",2 µg/mL
same,MIC,"Helicobacter pylori; Helicobacter pylori, H. pylori clinical isolate, culture No. 4377",1 µg/mL
same,MIC,"Helicobacter pylori; Helicobacter pylori, H. pylori clinical isolate, culture No. 4503",2 µg/mL
same,MIC,"Helicobacter pylori; Helicobacter pylori, H. pylori clinical isolate, culture No. 4504",1 µg/mL
same,MIC90,"Helicobacter pylori; Helicobacter pylori, H. pylori, MIC for 90% of clinical test isolates, read-out: MIC90",2 µg/mL
same,MIC50,"Helicobacter pylori; Helicobacter pylori, read-out: MIC50",2 µg/mL
same,MIC Range,S. aureus; S. aureus [MRSA] (31 isolates),0.25 to 4 µg/mL
same,MIC Range,S. aureus; S. aureus [MSSA] (32 isolates),0.25 to 16 µg/mL
same,MIC Range,S. aureus; S. aureus [tetR] (10 isolates),0.125 to 32 µg/mL
same,MIC Range,S. aureus; S. aureus [tetS] (20 isolates),≦0.06-0.25 μg/mL
same,MIC50,S. aureus; [10],0.25 µg/mL
same,MIC90,S. aureus; [10],0.5 µg/mL
same,MIC50,S. aureus; [11],0.5 µg/mL
same,MIC90,S. aureus; [11],0.5 µg/mL
same,MIC50,S. aureus; S. aureus [tetR] (10 isolates),4 µg/mL
same,MIC90,S. aureus; S. aureus [tetR] (10 isolates),16 µg/mL
same,MIC50,S. aureus; S. aureus [tetS] (20 isolates),0.125 µg/mL
same,MIC90,S. aureus; S. aureus [tetS] (20 isolates),0.25 µg/mL
same,MIC,"S. aureus; S. aureus strain PBS # 1309, tetK",0.5 µg/mL
same,MIC,"S. aureus; S. aureus strain PBS # 1310, tetM",8 µg/mL
same,MIC,"S. aureus; S. aureus strain PBS # 1739, tet38",4 µg/mL
same,MIC,"[2]; ATCC27823, Streptococcus constellatus 1202, ATCC 27823, read-out: MIC",32 µg/mL
same,MIC,"[2]; Streptococcus constellatus, S. constellatus, summary of Table 1, read-out: MIC, high MIC values",> 16 µg/mL
same,MIC Range,[3],0.25 to 0.5 µg/mL
same,MIC50,[3]; Staphylococcus aureus,0.25 µg/mL
same,MIC90,[3]; Staphylococcus aureus,0.5 µg/mL
same,"inhibition of the synthesis of cell wall, DNA, RNA and lipid components",Staphylococcus aureus,less than 20%
same,maximum inhibition of incorporation of [3H]-leucine into proteins,Staphylococcus aureus,80%
same,MIC 90%,Chlamydia trachomatis [4]; 72 h,0.125 µg/mL
same,MIC Range,Chlamydia trachomatis [4]; 72 h,0.03 to 0.125 µg/mL
same,MIC50,"Chlamydia trachomatis [4]; Chlamydia trachomatis, 72 h",0.06 µg/mL
same,MIC90,"Chlamydia trachomatis [4]; Chlamydia trachomatis, 72 h",0.125 µg/mL
same,MBC,"Chlamydia trachomatis [4]; Chlamydia trachomatis, after passage, read-out: MBC 90%",0.125 µg/mL
same,MBC 90%,Chlamydia trachomatis [4]; after passage,0.125 µg/mL
same,MBC Range,Chlamydia trachomatis [4]; after passage,0.03 to 0.125 µg/mL
same,MIC,[5],0.25 µg/mL
same,MIC,"[5]; Peptostreptococcus micros 3545, read-out: MIC",1 µg/mL
same,MIC50,E. cloacae,32 µg/mL
same,MIC90,E. cloacae,> 64 µg/mL
same,MIC 90%,Chlamydia pneumoniae; 72 h,0.5 µg/mL
same,MIC Range,Chlamydia pneumoniae; 72 h,0.125 to 0.5 µg/mL
same,MIC50,"Chlamydia pneumoniae; Chlamydia pneumoniae, 72 h",0.25 µg/mL
same,MIC90,"Chlamydia pneumoniae; Chlamydia pneumoniae, 72 h",0.5 µg/mL
same,MBC,"Chlamydia pneumoniae; Chlamydia pneumoniae, after passage, read-out: MBC 90%",0.25 µg/mL
same,MBC 90%,Chlamydia pneumoniae; after passage,0.25 µg/mL
same,MBC Range,Chlamydia pneumoniae; after passage,0.125 to 0.5 µg/mL
same,IC50,[6],8.3 ± 0.18 µM
same,MIC,P. acnes; Cutibacterium acnes,> 8 µg/mL
same,MIC50,P. acnes; [12],0.5 µg/mL
same,MIC90,P. acnes; [12],4 µg/mL
same,MIC50,P. acnes; [13],0.5 µg/mL
same,MIC90,P. acnes; [13],2 µg/mL
same,MIC Range,P. acnes; P. acnes [clinical isolates] (55 isolates),0.5 to 16 µg/mL
same,MIC Range,P. acnes; P. acnes [tetS] (2 isolates),0.25 to 1 µg/mL
same,MIC Range,P. acnes; P. acnes [tetS] (13 isolates),0.25 to 4 µg/mL
same,MIC,Bacteroides fragilis; Bacteroides fragilis 3374,0.12 µg/mL
same,MIC,Bacteroides fragilis; Bacteroides fragilis 3479,16 µg/mL
same,MIC,[7],4 µg/mL
same,MIC Range,[8]; MRSA-CA (33 isolates),0.12 to 8 µg/mL
same,MIC50,[8]; [14],0.25 µg/mL
same,MIC90,[8]; [14],0.5 µg/mL
same,MIC,"[8]; Staphylococcus aureus, single strain of doxycycline-resistant MRSA-CA",8 µg/mL
same,MIC,Lactobacillus casei,2 µg/mL
same,MIC Range,Chlamydia trachomatis [9],0.06 to 0.125 µg/mL
same,MIC90,"Chlamydia trachomatis [9]; Chlamydia trachomatis, read-out: MIC at which 90% of the strains were inhibited (MIC90)",0.125 µg/mL
same,MBC,"Chlamydia trachomatis [9]; Chlamydia trachomatis, read-out: minimum bactericidal concentration at which 90% of the strains were inhibited (MBC90)",0.125 µg/mL
